Assay results as given in US6346098B1, “Methods and kits for locally administering an active agent to an interstitial space of a host” (The Board of Trustees of the Leland Stanford Junior …, priority 2000, dated 2002).

Legend:
[1] = total group of 13 pigs, coronary venous injection
[2] = Coronary venous injection of Evans Blue dye via AIV or MCV, regional myocardial infiltration; type: in vivo, pigs; conditions: LV apex, anterior interventricular septum and anterior wall via AIV, inferoposterior wall via MCV
Description: Methods and Results: In 13 anesthetized pigs the coronary sinus was cannulated percutaneously and a balloon-tipped catheter was advanced to the anterior interventricular vein (AIV) or middle cardiac vein (MCV). […] Injection was performed with hyperbaric pressure in 8/13 cases (61%).

SMILES | persistence of contrast in myocardium (videodensitometric analysis) [1] | time for 50% clearance from myocardium (videodensitometric analysis) ([1]; FIG. 1) [min] | infiltration of targeted myocardial regions [2]
CC(=O)Nc1c(I)c(NC(C)=O)c(I)c(C(=O)O)c1I [diatrizoate] | at least 30 minutes | ~4 | –
Cc1cc(-c2ccc(/N=N/c3ccc4c(S(=O)(=O)O)cc(S(=O)(=O)O)c(N)c4c3O)c(C)c2)ccc1/N=N/c1ccc2c(S(=O)(=O)O)cc(S(=O)(=O)O)c(N)c2c1O [Evans Blue dye, Evans Blue] | – | – | localized, regional infiltration was reproducibly accomplished
